{"source": "paper PMC10991509", "about": "“A phase I study of ATR inhibitor gartisertib (M4344) as a single agent and in combination with carboplatin in patients with advanced solid tumours” (British Journal of Cancer, 2024)", "key": {"UGT1A1": {"target": "UGT1A1 (Canis lupus familiaris, UniProt A0A8I3S535)", "sequence (A0A8I3S535 entry or part of it)": "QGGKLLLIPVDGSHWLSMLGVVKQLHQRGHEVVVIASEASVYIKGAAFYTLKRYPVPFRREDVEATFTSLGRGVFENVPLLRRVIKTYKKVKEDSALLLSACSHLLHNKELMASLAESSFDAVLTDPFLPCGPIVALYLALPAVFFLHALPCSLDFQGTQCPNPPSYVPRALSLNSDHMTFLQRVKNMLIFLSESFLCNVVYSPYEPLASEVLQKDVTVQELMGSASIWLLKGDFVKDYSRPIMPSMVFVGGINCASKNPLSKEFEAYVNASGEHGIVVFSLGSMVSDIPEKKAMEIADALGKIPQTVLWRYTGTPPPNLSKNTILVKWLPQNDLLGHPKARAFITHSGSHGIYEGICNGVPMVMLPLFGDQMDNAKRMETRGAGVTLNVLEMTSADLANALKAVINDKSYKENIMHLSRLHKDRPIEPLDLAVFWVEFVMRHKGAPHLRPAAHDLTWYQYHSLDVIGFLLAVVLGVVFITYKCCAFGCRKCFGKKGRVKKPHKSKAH", "experiment": "UGT1A1 inhibition in dog liver microsomes"}, "ɣ-H2AX": {"tested_on": "ɣ-H2AX", "experiment": "ɣ-H2AX in ex vivo-stimulated CD45+ lymphocytes", "design": "species or system human", "conditions": "350 mg QD, n = 3, highest tested dose; 3 h post first dose", "source_text": "Exploratory objectives were to assess ATR inhibition and DNA damage by measuring phosphorylation of the Ser-139 residue of the histone variant H2AX (ɣ-H2AX) post-treatment in peripheral blood mononuclear cells (cohorts A2 and C), describe the mutational landscape and its relationship to BOR in patients with selected biomarkers (cohort C) and to determine changes in allele frequencies in mutations of interest and their association with clinical benefit (molecular response; cohorts A2 and C). Further details on the definitions of LOF mutations and methods of biomarker collection are described in the Supplementary Materials.\nTo determine H2AX phosphorylation (ɣ-H2AX) in lymphocytes, 100 µL of whole blood was stimulated with 62 µM 4NQO (4-nitroquinoline N-oxide, Sigma, UK) for 1 hour at 37°C. In parallel, 100 µL of whole blood was incubated with 10% DMSO (dimethyl sulfoxide, Sigma, UK) as an unstimulated control sample. The samples were subsequently treated (for 10 minutes at 37°C) with BD Lyse & Fix Solution (Becton Dickinson, USA) and the whole blood cells were permeabilized with ice-cold methanol (90% final concentration) for 30 minutes on ice. […] Cells were then analyzed using a FacsCanto II (Becton Dickinson, USA) collecting 10,000 events. […]"}, "[1]": {"tested_on": "patients with advanced solid tumours", "experiment": "Phase I safety and tolerability (TEAEs, DLTs, MTD/RP2D)", "assay_type": "in vivo", "source_text": "This phase I, multicenter, multicohort, open-label, first-in-human study (NCT02278250) assessed the safety, tolerability, pharmacokinetics (PK) and antitumour activity of orally administered gartisertib alone or in combination with intravenous carboplatin in patients with advanced solid tumours for whom no standard therapy was available.\nThe primary objectives of cohorts A and A2 were to evaluate safety and tolerability and determine the maximum tolerated dose (MTD) and/or recommended phase II dose (RP2D) of escalating doses of gartisertib monotherapy. In cohort B1, the primary objective was to determine the safety and tolerability as well as the MTD and/or RP2D of escalating doses of gartisertib in combination with carboplatin. The primary endpoints for these three study cohorts were safety parameters (AEs, clinical laboratory values, vital signs, and electrocardiogram [ECG] assessment) as well as the MTD and/or RP2D. The Supplementary Materials provide further details regarding the safety analysis, including determination of MTD, as well as the definitions of dose-limiting toxicities (DLTs; Supplementary Table S1). Please note that in this study increased blood bilirubin was defined as a laboratory finding whereas hyperbilirubinemia was a clinical diagnosis based on clinical symptoms.\nGartisertib safety was determined via reporting, recording, and analysis of Baseline Medical Conditions, AEs, physical examination data including vital signs, electrocardiograms and laboratory tests. Medical history and physical examination data were collected during the study. Any potential AE was reported and comprehensively evaluated throughout the study. AE severity was assessed according to the National Cancer Institute – Common Terminology Criteria for Adverse Events (NCI–CTCAE) version 4.0 (cohorts A and B1) or 5.0 (cohorts A2 and C). Any clinical AE with a grade of 4 or 5 was considered to be a serious AE (SAE). A laboratory AE of grade 4 was considered serious if it met certain SAE criteria. […] Important medical events that may not result in death, be life-threatening, or require hospitalization were considered to be SAEs when, based upon appropriate medical judgment, they may jeopardize the patient or may require medical or surgical intervention to prevent one of the outcomes listed above.\nPatients were monitored throughout treatment cycles for DLTs. DLTs were defined using the NCI CTCAE (cohorts A and B1: version 4.0; cohort A2: version 5.0) and were defined as being related or possibly related to treatment.\nCohorts A, A2, and B1: With respect to determination of the MTD, the next dose level to be investigated was decided at a Dose Escalation Meeting and was based on the available safety data from the previous cohort. The MTD of gartisertib was primarily determined by DLTs that occurred up to and including the end of the DLT period. Please see Table S1 for definitions of DLTs. In cohorts A and B1, the gartisertib MTD was determined according to the NCI-CTCAE version 4.0 and in cohorts A2 and […], the gartisertib MTD was defined according to the NCI-CTCAE version 5.0. If ≥2 out of up to six participants at the same dose level have a DLT, the gartisertib MTD was determined as the dose level below or at an intermediate dose level. The exact dose was determined following a discussion regarding all the relevant toxicity, including DLTs that occur in prior cohorts beyond the end of the DLT period. An RP2D was determined for each applicable cohort of the study; however, it may not be higher than the MTD."}}, "data": [{"compound": "Nc1nn2cc(F)cnc2c1C(=O)Nc1cncc(F)c1N1CCC(C(=O)N2CCN(C3COC3)CC2)CC1", "note": "[gartisertib, Gartisertib]", "values": [{"measurement": "IC50", "setting": "UGT1A1", "value": "> 50", "unit": "µM"}, {"measurement": "target inhibition of ɣ-H2AX", "setting": "ɣ-H2AX", "value": "Complete target inhibition"}, {"measurement": "TEAE Constipation, Grade 3/4", "setting": "[1]; human, in vivo", "value": "0 (0.0) n (%)"}, {"measurement": "TEAE Decreased appetite, Grade 3/4", "setting": "[1]; human, in vivo", "value": "0 (0.0) n (%)"}, {"measurement": "TEAE Diarrhoea, Grade 3/4", "setting": "[1]; human, in vivo", "value": "0 (0.0) n (%)"}, {"measurement": "TEAE Disease progression, Grade 3/4", "setting": "[1]; human, in vivo", "value": "0 (0.0) n (%)"}, {"measurement": "TEAE Disease progression, any grade", "setting": "[1]; human, in vivo", "value": "0 (0.0) n (%)"}, {"measurement": "TEAE Dyspnoea, Grade 3/4", "setting": "[1]; human, in vivo", "value": "0 (0.0) n (%)"}, {"measurement": "TEAE Headache, Grade 3/4", "setting": "[1]; human, in vivo", "value": "0 (0.0) n (%)"}, {"measurement": "TEAE Hypokalaemia, Grade 3/4", "setting": "[1]; human, in vivo", "value": "0 (0.0) n (%)"}, {"measurement": "TEAE Hypokalaemia, any grade", "setting": "[1]; human, in vivo", "value": "0 (0.0) n (%)"}, {"measurement": "TEAE Hypomagnesaemia, Grade 3/4", "setting": "[1]; human, in vivo", "value": "0 (0.0) n (%)"}, {"measurement": "TEAE Hypomagnesaemia, any grade", "setting": "[1]; human, in vivo", "value": "0 (0.0) n (%)"}, {"measurement": "TEAE Jaundice, Grade 3/4", "setting": "[1]; human, in vivo", "value": "0 (0.0) n (%)"}, {"measurement": "TEAE Jaundice, any grade", "setting": "[1]; human, in vivo", "value": "0 (0.0) n (%)"}, {"measurement": "TEAE Neutropenia, Grade 3/4", "setting": "[1]; human, in vivo", "value": "0 (0.0) n (%)"}, {"measurement": "TEAE Peripheral oedema, Grade 3/4", "setting": "[1]; human, in vivo", "value": "0 (0.0) n (%)"}, {"measurement": "TEAE Peripheral oedema, any grade", "setting": "[1]; human, in vivo", "value": "0 (0.0) n (%)"}, {"measurement": "TEAE Thrombocytopenia, Grade 3/4", "setting": "[1]; human, in vivo", "value": "0 (0.0) n (%)"}, {"measurement": "TEAE Thrombocytopenia, any grade", "setting": "[1]; human, in vivo", "value": "0 (0.0) n (%)"}, {"measurement": "TEAE anaemia", "setting": "[1]; human, in vivo", "value": 61.5, "unit": "%"}, {"measurement": "TEAE fatigue", "setting": "[1]; human, in vivo", "value": 47.6, "unit": "%"}, {"measurement": "TEAE increased blood bilirubin", "setting": "[1]; human, in vivo", "value": 61.5, "unit": "%"}, {"measurement": "TEAE nausea", "setting": "[1]; human, in vivo", "value": 66.7, "unit": "%"}, {"measurement": "abdominal pain leading to gartisertib discontinuation", "setting": "[1]; human, in vivo", "value": 7.7, "unit": "%"}, {"measurement": "hepatic failure leading to gartisertib discontinuation", "setting": "[1]; human, in vivo", "value": 7.7, "unit": "%"}, {"measurement": "increased ALT leading to gartisertib discontinuation", "setting": "[1]; human, in vivo", "value": 7.7, "unit": "%"}, {"measurement": "increased blood bilirubin leading to gartisertib discontinuation", "setting": "[1]; human, in vivo", "value": 11.9, "unit": "%"}, {"measurement": "nausea leading to gartisertib discontinuation", "setting": "[1]; human, in vivo", "value": 7.1, "unit": "%"}, {"measurement": "patients experiencing a gartisertib-related TEAE", "setting": "[1]; human, in vivo", "value": "≥ 92.3", "unit": "%"}, {"measurement": "patients who experienced at least one serious TEAE", "setting": "[1]; human, in vivo", "value": "≥ 50", "unit": "%"}, {"measurement": "patients with grade 3 or 4 changes in laboratory parameters", "setting": "[1]; human, in vivo", "value": "≤ 20", "unit": "%"}, {"measurement": "recommended phase II dose (RP2D)", "setting": "[1]; human, in vivo", "value": 250, "unit": "mg QD"}, {"measurement": "serious TEAE related to gartisertib", "setting": "[1]; human, in vivo", "value": "19.0-37.5%"}, {"measurement": "DLTs at QD doses subsequently investigated", "setting": "[1]; in vivo", "value": "no additional DLTs observed"}, {"measurement": "changes in ECG parameters", "setting": "[1]; in vivo", "value": "no clinically relevant changes"}, {"measurement": "changes in vital signs", "setting": "[1]; in vivo", "value": "no clinically relevant changes"}, {"measurement": "gartisertib dose reduction due to a treatment-related TEAE", "setting": "[1]; in vivo", "value": "eight"}, {"measurement": "patients with ≥1 DLT", "setting": "[1]; in vivo", "value": "five"}, {"measurement": "tolerability of gartisertib 1200 mg twice weekly", "setting": "[1]; in vivo", "value": "not tolerated"}, {"measurement": "deaths considered related to gartisertib or carboplatin", "setting": "[1]; six deaths reported across all cohorts", "value": "none"}]}]}
